Reference: patent publication US10849872B2, “Methods and compositions for treating obesity, preventing weight gain, promoting weight loss, promoting slimming, or treating or preventing the development of diabetes” (NAN Global, LLC, priority 2014, dated 2020)

Key:
[1] = system: overweight, obese, and/or diabetic subjects; experiment: Preliminary trial in overweight, obese, and/or diabetic subjects; assay type: in vivo, human
Description: A preliminary trial involving 75 overweight, obese, and/or diabetic subjects of both sexes was carried out over a twenty-month period. Exclusion criteria were: (1) recent significant weight gain, (2) a compromised thermoregulatory system, (3) pregnancy, (4) renal or hepatic failure, (5) use of illegal drugs or drugs that impair the body's heat dissipation mechanisms, (6) serious dysrhythmias, (7) unstable angina pectoris, (8) congestive heart failure, (9) severe cerebrovascular disease, (10) use of a pacemaker, (11) severe pulmonary impairment, (12) anemia, (13) Parkinson's disease, (14) body weight of less than 35 kilograms, (15) extensive psoriasis, (16) repeated episodes of hypoglycemia, (17) cystic fibrosis, (18) spinal cord injury, (19) a hereditary muscle disease, (20) chronic or recurrent venous thrombosis, (21) untreated hyperthyroidism, (22) exercise- or heat-induced angioedema, (23) seizure disorders, (24) schizophrenia, and (25) hypocalcemia.
Medications that reduce sweating, decrease vasodilatation, decrease cardiac output, or induce hypothalamic depression were not taken prior to, during, and immediately after treatment.
Obese participants, aged 16-72, were administered orally one or more hard gelatin capsules per day, each containing 20 mg of active ingredient (i.e., tyrphostin 9) and microcrystalline cellulose. They were instructed not to modify their food intake or to start a course of exercise. […] Afterwards, different dosing schedules were imposed, with refractory individuals being administered two or three capsules per day (i.e., 40 or 60 mg tyrphostin 9 per day), whereas only one capsule per day was administered to all others, who consequently received 20 mg tyrphostin 9 per day throughout the trial.
Participants were also instructed to prevent dehydration by drinking plenty of water and to replenish electrolytes by taking both potassium and magnesium supplements or V-8 Juice or Gatorade. Those receiving two capsules per day were asked to take them at the same time during weeks two and three and then to switch to one in the morning and one at night during weeks four and five. Participants receiving 40 mg tyrphostin 9 per day reported that sweating/body temperature peaked either during night time or day time, depending on whether the two capsules were taken in the morning or at night. […] Obese participants lost on average 4 kg per month, with cumulative weight losses of up to 48 kg.
Diabetic subjects (mostly obese and all presenting Type 2 diabetes mellitus) were similarly treated.

C57BL/6 mice = experiment: Feeding experiments of C57BL/6 mice, oral tyrphostin 9; assay type: in vivo
Description: (§1) A preclinical toxicity study of tyrphostin 9 was conducted in human cell lines (brain, liver, lung, intestine, kidney, and muscle), followed by feeding experiments of C57BL/6 mice. In the in vivo mice experiments, the mice were orally administered tyrphostin 9 during 15 days, at a dose of 0.175 mg/kg/day.

[2] = Shelf life of synthesised tyrphostin 9; assay type: physicochemical; conditions: at 25-35° C.
Description: This procedure yields about 800 g (about 95% yield) of a light-yellow microcrystalline solid that melts at 141-142° C. (uncorrected), presents UV absorption maxima at 247 nm and 365 nm and has an Rf value of 0.65 (using benzene as eluant and Merck's TLC silica gel 60 F254 plastic-backed sheets), with only one spot being observed. The mixed melting point of this compound and authentic tyrphostin 9 (acquired from Cayman Chemical) was also 141-142° C. (uncorrected), and its spectroscopic and chromatographic properties were identical to those of the authentic product. This compound is stable, with a shelf life of over 1 year at 25-35° C.; if necessary it may be recrystallized from ethanol.

[3] = system: human cell lines (brain, liver, lung, intestine, kidney, and muscle); experiment: Preclinical toxicity study in human cell lines; assay type: cell-based; conditions: all examined human cell lines: brain
Description: as §1

obese subjects = experiment: Synergistic effects of tyrphostin 9 and L-carnitine tartrate in obese subjects; assay type: in vivo, human; conditions: Group A: two capsules per day of 20 mg tyrphostin 9, oral
Description: Obese subjects with similar BMI and whose weight had remained essentially constant during the past 30 days were recruited, instructed not to modify their eating habits, food intake, or lifestyle, and randomly and blindly assigned to either treatment Group A, Group B, or Group C.
Subjects in Group A were administered (orally) two capsules per day, each containing 20 mg Tyrphostin 9 plus inert excipient; subjects in Group B were administered (orally) four capsules per day, each containing 5 mg tyrphostin 9 and about 700 mg L-carnitine tartrate; subjects in Group C were administered—in the morning—two capsules, each containing 20 mg Tyrphostin 9 plus inert excipient, and—at night time—four capsules, each containing about 700 mg of L-carnitine tartrate.
After a two week washout period, a new experiment was initiated. Subjects in Group A were orally administered two capsules per day, each containing 20 mg Tyrphostin 9 plus inert excipient, subjects in Group B were given eight capsules per day, each containing 5 mg Tyrphostin 9 plus about 700 mg L-carnitine tartrate, and subjects in Group C were administered—in the morning—two capsules, each containing 20 mg tyrphostin 9 plus inert excipient and, at night, eight capsules each containing about 700 mg L-carnitine tartrate.

[4] = well known properties; cited from earlier work
[5] = system: differentiation of keratocytes into adipocytes; experiment: Inhibition of differentiation into adipocytes; assay type: cell-based
human neutrophils = conditions: well known properties; cited from earlier work

**Q.** Which results are given for CC(C)(C)c1cc(C=C(C#N)C#N)cc(C(C)(C)C)c1O [tyrphostin 9]?
**A.** sweating/heat sensation, two capsules simultaneously versus one in the morning and one at night ([1]; 40 mg per day, weeks two and three simultaneous, weeks four and five split): more intense during weeks two and three; slimming (waist circumference and other body measurements) ([1]; all participants, end of treatment): significant reductions in waist circumference; blood glucose level ([1]; diabetic subjects (Type 2 diabetes mellitus, mostly obese)): significant decrease; sweating / body temperature reported by participants ([1]; end of first week, one 20 mg capsule per day, oral): most of them reported sweating copiously and/or noticing a distinct increase in body temperature; sweating / heat sensation reported by participants ([1]; end of trial, 20, 40 or 60 mg per day, all participants): sweating copiously and/or experienced an increased heat sensation; adverse effects ([1]; human, in vivo): no adverse effects were reported; muscle mass loss ([1]; human, in vivo): negligible; rebound effect ([1]; human, in vivo): no “rebound effect” was observed; tolerability of treatment ([1]; human, in vivo): very well tolerated; blood lipid values ([1]; obese and diabetic subjects): lower blood lipid values; cumulative weight losses ([1]; obese participants): up to 48 kg; average weight loss ([1]; obese participants, 20-60 mg per day oral): 4 kg per month; toxicity or inflammation in treated mice (C57BL/6 mice; 0.175 mg/kg/day during 15 days, histochemical and behavioral criteria): no evidence of toxicity or inflammation; adipocyte dimensions (C57BL/6 mice; concomitant with visceral lipid transport): reduction; effect on chow intake (C57BL/6 mice; lean mice): no such effect; apoptosis induction, obese versus lean mice (C57BL/6 mice; mouse, in vivo): more evident in obese mice than in lean mice; glycogen storage in hepatocytes (C57BL/6 mice; mouse, in vivo): promotes; visceral lipid transport from adipocytes (C57BL/6 mice; mouse, in vivo): promotes; chow intake curtailed (C57BL/6 mice; obese mice grown on a high-fat diet, oral 0.175 mg/kg/day, 15 days): about 50%; adipocyte apoptosis mediated by caspase-3 (C57BL/6 mice; to a greater extent than taurosporine): promotes; shelf life [2]: over 1 year; toxicity in human cell lines [3]: low; weight loss after 15 days (obese subjects): about 2 kg; toxicity (in vitro and in vivo) [4]: very low toxicity; differentiation of keratocytes into adipocytes [5]: inhibits; TNF-induced respiratory burst of human neutrophils (human neutrophils): inhibits
